Results: patent US20040067998A1, “Antifungal and/or antiparasitic pharmaceutical composition and novel indole derivatives as active principle of such a composition” (priority 2003, published 2004)
Values after ≈ are worked out from the molar mass of the structure shown. Values joined by “and” are separate entries in the source; they are usually repeats but may differ in a detail not shown here. Equal values may be shown once. “Also recorded” adds a separate entry of the source. Read-outs that look alike come from different tables or passages of the source.

Key:
[1] = test system: Aspergillus fumigatus (strain n°AF 980003); test: Antifungal activity on a clinical strain of Aspergillus fumigatus (Alamar Blue microplate test); assay type: cell-based; conditions: Aspergillus fumigatus, strain AF980003, read-out: CMI or CI80 Aspergillus fumigatus (AF980003)
[2] = test system: Candida albicans (strain n° CA980001); test: Antifungal activity on a clinical strain of Candida albicans (MTT colorimetric microplate test); assay type: cell-based; conditions: strain CA980001; for MIC: read-out: CMI or CI80 Candida albicans (CA980001)
[3] = test system: promastigote stage of Leishmania mexicana; test: Antiparasitic activity on the promastigote form of Leishmania (MTT); assay type: cell-based
[4] = test system: intracellular amastigote form of Leishmania mexicana; test: Anti-leishmanian activity on the amastigote form in peritoneal macrophages of BALB/c mice; assay type: cell-based; conditions: for IC50: Leishmania mexicana, Peritoneal macrophage, read-out: CI50 Intracellular amastigotes
[5] = test system: Candida albicans (CA98001); test: Antifungal activity in vivo on a model of disseminated candidiasis; design: species or system female Swiss mice; conditions: for survival at D10: Test N°4
[6] = test system: Leishmania major; test: Anti-leishmanian activity in vivo on a model of cutaneo-mucosal and visceral leishmaniasis; design: species or system male BALB/c mice
Protocol: (1999), Croft et al. (1993) and Hill et al. (1983). The animals used (Centre d'élevage R. Janvier, Le Genest-St-France) were male BALB/c mice, aged 7 weeks at the time of inoculation of the parasites. This operation was performed in accordance with the legislation relating to animal experimentation. […] Days after the inoculation, the treatment was administered intraperitoneally for 10 days. Three weeks after the treatment, its effectiveness was determined by determining the parasite level in the liver, spleen, popliteal ganglion and the cutaneous lesion.

[7] = test system: Candida krusei (4 strains); test: Antifungal activity in vitro on clinical strains of Candida: krusei (4 strains); assay type: cell-based
[8] = test system: Candida albicans (4 strains); test: Antifungal activity in vitro on clinical strains of Candida: albicans (4 strains); assay type: cell-based
[9] = test system: Candida parapsilosis (2 strains); test: Antifungal activity in vitro on clinical strains of Candida: parapsilosis (2 strains); assay type: cell-based
[10] = test system: Candida lusitaniae (1 strain); test: Antifungal activity in vitro on clinical strains of Candida: lusitaniae (1 strain); assay type: cell-based; conditions: for CI80 on clinical strains of Candida: strain CL980001 (Candida lusitaniae)
[11] = test system: synthesis of ergosterol; test: Mechanism of action: quantification of ergosterol (HPLC and UV spectrophotometry); assay type: cell-based
Text: The principal mechanism of action of the triazole derivatives is the inhibition of the synthesis of ergosterol leading to instability of the cell membrane. […] These two techniques require a prior saponification of the sample followed by an extraction of the sterols present. The results obtained are expressed in μg of ergosterol per g of sample. The activity of the derivatives studied is expressed by their capacity to inhibit the synthesis of ergosterol compared to an untreated control sample.

[12] = test system: clinical strains of Candida; test: Antifungal activity in vitro on several clinical strains of Candida (overall statement over all strains); assay type: cell-based; conditions: summary of Table 41
[13] = test system: Candida tropicalis (1 strain); test: Antifungal activity in vitro on clinical strains of Candida: tropicalis (1 strain); assay type: cell-based; conditions: strain CT980002 (Candida tropicalis)
[14] = Candida albicans, 24 h at 37° C., MTT
[15] = Leishmania mexicana; promastigotes; 36 h at 26° C., MTT; read-out: CI50 Leishmania mexicana Promastigotes
[16] = Test N°3, 3 × 20 mg/kg/d for 5 d intraperitoneal
[17] = compound 45 intraperitoneally for 10 days, dose not given, three weeks after treatment
[18] = strain CK980002 (Candida krusei)
[19] = strain CK980003 (Candida krusei)
[20] = strain CK980004 (Candida krusei)
[21] = strain CA980001 (Candida albicans)
[22] = strain CP980002 (Candida parapsilosis)
[23] = Test N°3, ketoconazole 20 mg/kg/d for 5 d

## CCn1cc(C(c2ccc(Cl)cc2Cl)n2cncn2)c2cc(Br)ccc21 (centres unmarked) [Cpsé 47, 5-Bromo-1-ethyl-3-[(2,4-dichlorophenyl)(1H-1,2,4-triazol-1yl)methyl]-1H-indole]
[1]; Alamar Blue
  MIC: > 100 µM
[2]; [14]
  MIC: > 100 µM
[3]; [15]
  IC50: 25 µM and 8.07 µg/mL
other
  melting point: 124 to 126 °C

## CCN1CCc2cc(Br)cc(C(c3ccc(F)cc3)n3ccnc3)c21 (centres unmarked) [Cpsé 51, 5-Bromo-1-ethyl-7-[(4-fluorophenyl)(1H-imidazol-1-yl)methyl]indoline]
[1]; Alamar Blue
  MIC: > 100 µM
[2]; [14]
  MIC: > 100 µM
[3]; [15]
  IC50: 59.2 µM and 23.8 µg/mL
other
  melting point: 120 to 123 °C

## Clc1ccc(Cn2cc(CCn3ccnc3)c3ccccc32)cc1 [Cpsé 59, 1-(4-Chlorobenzyl)-3-(2-1H-imidazol-1-ylethyl)-1H-indole]
other
  melting point: 78 to 80 °C

## Clc1ccc(Cn2cc(C3(Cn4ccnc4)CCCC3)c3ccccc32)cc1 [Cpsé 63, 1-[1-(4-Chlorobenzyl)-1H-indol-3yl]-1-(1H-imidazol-1-ylmethyl)cyclopentane]
other
  melting point: 91 to 92 °C

## OC(Cn1cncn1)(Cn1ccc2ccccc21)c1ccc(Cl)cc1Cl (centres unmarked) [Cpsé 78, 2-(2,4-Dichlorophenyl)-1-(1,2,4-1H-triazol-1-yl)-3-(indol-1-yl)propan-2-ol]
[1]
  MIC: > 100 µM
[4]
  activity against the intracellular amastigote form of Leishmania (in words): very active
[4]; intracellular amastigote form
  IC50: 1.5 ± 0.01 µg/mL (≈ 3.87 µM)
[2]; Candida albicans, 24 h
  MIC: > 100 µM
[5]; [16]
  parasite level in the kidneys compared with the control group (in words): significant reduction
[6]; [17]
  reduction of the hepatic parasite level: 79%
  reduction of the spleen parasite level: 98.9%
[3]
  activity against Leishmania mexicana (in words): most active
[3]; Leishmania mexicana; read-out: CI50 Leishmania mexicana Promastigotes
  IC50: 0.1 µg/mL and 230 nM

## CNC[C@H](O)[C@@H](O)[C@H](O)[C@H](O)CO.[O]=[Sb](=[O])[OH] [Glucantime ®, meglumine antimoniate, reference compound]
[4]
  IC50 on the amastigote stage of Leishmania mexicana: 48.7 µg/mL
[6]; Glucantime 10 mg/Kg/d, 10 days
  reduction of the hepatic parasite level: 74%
  reduction of the spleen parasite level: 82%
[3]
  CI50 Leishmania mexicana Promastigotes: 15000 ± 260 µg/mL

## CC(=O)N1CCN(c2ccc(OCC3COC(Cn4ccnc4)(c4ccc(Cl)cc4Cl)O3)cc2)CC1 (centres unmarked) [Ketoconazole, ketoconazole, reference compound]
[7]; [18]
  CI80 on clinical strains of Candida: 700 ± 20 nM
[7]; [19]
  CI80 on clinical strains of Candida: 800 ± 20 nM
[7]; [20]
  CI80 on clinical strains of Candida: <10 nM
[8]; [21]
  CI80 on clinical strains of Candida: 5 nM
[4]
  IC50: 1.3 ± 0.2 µg/mL (≈ 2.45 µM)
[9]; [22]
  CI80 on clinical strains of Candida: <10 nM
[2]; Candida albicans, 24 h
  MIC: 0.0094 µM (≈ 0.005 µg/mL)
[2]
  CMI or CI80 Candida albicans (CA980001): 0.005 µg/mL
[5]; Test N°1, ketoconazole 20 mg/kg/d for 5 d
  survival at D14: 88%
[5]; Test N°2, ketoconazole 10 mg/kg/d for 5 d
  survival at D14: Ketoconazole: no survival at D14.
[5]; [23]
  survival at D14: 88%
  survival at D18: 50%
[5]; ketoconazole 20 mg/kg/d for 5 d
  survival at D10: 50%
[10]
  CI80 on clinical strains of Candida: <10 nM
[3]; Leishmania mexicana, read-out: CI50 Leishmania mexicana Promastigotes
  IC50: 3 ± 0.5 µg/mL

## OC(Cn1cncn1)(Cn1ccc2ccccc21)c1ccc(Cl)cc1Cl (centres unmarked) [compound 78]
[7]; clinical strains, b748: one strain
  activity against Candida krusei (in words): active; also recorded: very active
[7]; strain CK980001 (Candida krusei)
  CI80 on clinical strains of Candida: <10 nM
[7]; [18]
  CI80 on clinical strains of Candida: 7200 ± 100 nM
[7]; [19]
  CI80 on clinical strains of Candida: 9200 ± 40 nM
[7]; [20]
  CI80 on clinical strains of Candida: 300 ± 100 nM
[8]; clinical strains
  activity against strains of Candida albicans (in words): active; also recorded: very active
[8]; [21]
  CI80 on clinical strains of Candida: <1 nM
[8]; strain CA980002 (Candida albicans)
  CI80 on clinical strains of Candida: <10 nM
[8]; strain CA980003 (Candida albicans)
  CI80 on clinical strains of Candida: <10 nM
[8]; strain CA980005 (Candida albicans)
  CI80 on clinical strains of Candida: <10 nM
[9]; clinical strains
  activity against Candida parapsilosis (in words): very active
[9]; strain CP980001 (Candida parapsilosis)
  CI80 on clinical strains of Candida: <10 nM
[9]; [22]
  CI80 on clinical strains of Candida: 530 ± 120 nM
[2]
  MIC: <0.001 µM
[5]; Test N°2, 2 × 30 mg/kg/d for 5 d intraperitoneally, monitored 14 days (78: from D9 to D14)
  effect of treatment on the survival of the animals (in words): significantly prolonged the survival
[5]; [16]
  survival at D14: 100%
  survival at D18: 75%
[5]; Test N°3, 3 × 20 mg/kg/d, experiment continued for 4 more days (D18)
  survival greater than that of the reference treatment (ketoconazole 20 mg/kg): 25%
[5]; 3 × 20 mg/kg/d for 5 d, treatment intraperitoneal or per os
  survival at D10: 100%
[11]; preliminary results
  inhibition of the synthesis of ergosterol (in words): strong inhibition
[11]; treatment for 24 hours at 10 μg, HPLC
  reduction of the presence of ergosterol (HPLC determination): 70%
[11]; treatment for 24 hours at 10 μg, UV spectrophotometry
  ergosterol in the treated sample (UV spectrophotometry, in words): absence of ergosterol
[10]; clinical strain
  activity against Candida lusitaniae (in words): very active
[10]
  CI80 on clinical strains of Candida: <10 nM
[12]
  activity against different strains of Candida (in words): most active
[3]; promastigotes; read-out: CI50 Leishmania mexicana Promastigotes
  IC50: < 1000 nM
[13]
  CI80 on clinical strains of Candida: <10 nM
